This is an account of results in patent US8906914B2, “Ethylene diamine modulators of fatty acid hydrolase” (priority 2009, dated 2014).

The target of one assay is T1, FAAH (Homo sapiens, UniProt O00519).
T1 sequence (O00519 1-579): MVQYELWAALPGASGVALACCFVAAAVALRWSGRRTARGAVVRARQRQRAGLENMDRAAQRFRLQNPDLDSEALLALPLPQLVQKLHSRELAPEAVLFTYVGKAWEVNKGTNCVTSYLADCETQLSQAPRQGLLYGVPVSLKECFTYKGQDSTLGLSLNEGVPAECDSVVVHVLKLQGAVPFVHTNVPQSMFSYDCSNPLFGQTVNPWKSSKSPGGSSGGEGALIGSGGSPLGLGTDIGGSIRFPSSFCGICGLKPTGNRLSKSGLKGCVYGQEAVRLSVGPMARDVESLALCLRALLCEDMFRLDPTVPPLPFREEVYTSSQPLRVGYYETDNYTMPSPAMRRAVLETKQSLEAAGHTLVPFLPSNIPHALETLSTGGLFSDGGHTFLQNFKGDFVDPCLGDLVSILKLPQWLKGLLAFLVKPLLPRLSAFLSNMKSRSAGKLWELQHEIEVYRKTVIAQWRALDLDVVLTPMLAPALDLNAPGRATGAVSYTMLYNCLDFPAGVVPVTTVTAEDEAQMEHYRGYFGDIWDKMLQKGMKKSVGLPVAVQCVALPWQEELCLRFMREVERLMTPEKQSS
The experiment in a line: Human FAAH assay (Assay Method 1), 3H-anandamide hydrolysis in cell homogenate. The class given is biochemical. Also noted: expressed in transfected cells; alternatively T84 frozen cell pellets (endogenous FAAH). As to the method:
A. Transfection of Cells with Human FAAH
(§1) A 10-cm tissue culture dish with a confluent monolayer of SK-N-MC cells was split 2 days (d) prior to transfection. Using sterile technique, the media was removed and the cells were detached from the dish by the addition of trypsin. One fifth of the cells were then placed onto a new 10-cm dish. Cells were grown in a 37° C. incubator with 5% CO2 in Minimal Essential Media Eagle with 10% Fetal Bovine Serum. After 2 d, cells were approximately 80% confluent. These cells were removed from the dish with trypsin and pelleted in a clinical centrifuge. The pellet was re-suspended in 400 μL complete media and transferred to an electroporation cuvette with a 0.4 cm gap between the electrodes. Supercoiled human FAAH cDNA (1 μg) was added to the cells and mixed. The voltage for the electroporation was set at 0.25 kV, and the capacitance was set at 960 μF. After electroporation, the cells were diluted into complete media (10 mL) and plated onto four 10-cm dishes. Because of the variability in the efficiency of electroporation, four different concentrations of cells were plated. The ratios used were 1:20, 1:10, and 1:5, with the remainder of the cells being added to the fourth dish. The cells were allowed to recover for 24 h before adding the selection media (complete media with 600 μg/mL G418). After 10 d, dishes were analyzed for surviving colonies of cells. Dishes with well-isolated colonies were used. Cells from individual colonies were isolated and tested.
(§2) The assay mixture consisted of 50 μL of the cell homogenate, 10 μL of the test compound, and 40 μL of anandamide [1-3H-ethanolamine] (^3H-AEA, Perkin-Elmer, 10.3 Ci/mmol), which was added last, for a final tracer concentration of 80 nM. The reaction mixture was incubated at rt for 1 h. During the incubation, 96-well Multiscreen filter plates (catalog number MAFCNOB50; Millipore, Bedford, Mass., USA) were loaded with 25 μL of activated charcoal (Multiscreen column loader, catalog number MACL09625, Millipore) and washed once with 100 μL of MeOH. Also during the incubation, 96-well DYNEX MicroLite plates (catalog number NL510410) were loaded with 100 μL of MicroScint40 (catalog number 6013641, Packard Bioscience, Meriden, Conn., USA). After the 1 h incubation, 60 μL of the reaction mixture were transferred to the charcoal plates, which were then assembled on top of the DYNEX plates using Centrifuge Alignment Frames (catalog number MACF09604, Millipore). The unbound labeled ethanolamine was centrifuged through to the bottom plate (5 min at 2000 rpm), which was preloaded with the scintillant, as described above. The plates were sealed and left at rt for 1 h before counting on a Hewlett Packard TopCount.
(§3) Where activity is shown as greater than (>) a particular value, the value is the solubility limit of the compound in the assay medium or the highest concentration tested in the assay.

For the next assay, the target named is T2, Rat FAAH-1 (Rattus norvegicus, UniProt P97612).
T2 construct: expressed in transfected cells
T2 sequence (P97612 1-579): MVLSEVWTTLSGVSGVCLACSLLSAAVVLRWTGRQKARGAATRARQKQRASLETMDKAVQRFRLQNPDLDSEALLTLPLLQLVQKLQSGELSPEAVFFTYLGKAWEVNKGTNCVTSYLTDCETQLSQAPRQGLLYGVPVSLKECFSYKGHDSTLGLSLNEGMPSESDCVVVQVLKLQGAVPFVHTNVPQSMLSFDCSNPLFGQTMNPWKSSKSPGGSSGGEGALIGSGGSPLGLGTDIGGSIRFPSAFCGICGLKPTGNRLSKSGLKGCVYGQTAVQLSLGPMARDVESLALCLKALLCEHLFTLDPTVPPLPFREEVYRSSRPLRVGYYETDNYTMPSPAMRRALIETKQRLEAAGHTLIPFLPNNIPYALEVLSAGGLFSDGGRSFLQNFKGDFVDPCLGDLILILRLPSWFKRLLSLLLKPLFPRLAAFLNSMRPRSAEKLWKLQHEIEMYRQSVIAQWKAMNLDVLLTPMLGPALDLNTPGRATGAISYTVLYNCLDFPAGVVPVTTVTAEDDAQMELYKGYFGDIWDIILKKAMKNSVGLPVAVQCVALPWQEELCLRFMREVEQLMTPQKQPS
The experiment in a line: Rat FAAH-1 assay (Assay Method 2), 3H-anandamide hydrolysis in cell homogenate. The format is biochemical. As to the method: A. Transfection of Cells with Rat FAAH-1
as §1, with “rat” for “human”
as §2, with “[1-^3H-ethanolamine]” for “[1-3H-ethanolamine]”
as §3

pIC50: −log10 of the molar value. Where a name gives a salt, the structure may show the parent alone.

One may read the pIC50 as the IC50 on a negative log10 scale, so that one unit is a factor of ten. Low values mean a high IC50, high ones a low IC50. Turning to `CC(C)(C)OC(=O)N[C@@H](CNc1cc(-c2ccc(C(F)(F)F)c(Cl)c2)ncn1)c1ccccc1` [Example 2, (1R)-{2-[6-(3-Chloro-4-trifluoromethyl-phenyl)-pyrimidin-4-ylamino]-1-phenyl-ethyl}-carbamic acid tert-butyl ester], the pIC50 on FAAH is 6.48; at Rat FAAH-1, 5.10.

Turning to `N[C@H](CNc1cc(-c2ccc(C(F)(F)F)c(Cl)c2)ncn1)c1ccc(Cl)cc1` [Example 38, (1S)—N^2-1-(4-Chloro-phenyl)-[6-(3-chloro-4-trifluoromethyl-phenyl)-pyrimidin-4-yl]-ethane-1,2-diamine, trifluoroacetic acid salt], the pIC50 against FAAH was 5.80; on Rat FAAH-1, 5.66.

As to `N[C@@H](CNc1cc(-c2ccc(C(F)(F)F)c(Cl)c2)ncn1)c1ccccc1` [Example 1, (1R)—N^2-{6-[3-Chloro-4-(trifluoromethyl)phenyl]pyrimidin-4-yl}-1-phenylethane-1,2-diamine hydrochloride acid salt], the pIC50 is 7.30 at FAAH and 7.22 against Rat FAAH-1.

Turning to `CSc1ccc([C@@H](N)CNc2cc(-c3ccc(C(F)(F)F)c(Cl)c3)ncn2)cc1` [Example 54, (1R)—N^2-[6-(3-Chloro-4-trifluoromethyl-phenyl)-pyrimidin-4-yl]-1-(4-methylsulfanyl-phenyl)-ethane-1,2-diamine], the values for the pIC50 against FAAH and against Rat FAAH-1 were 6.66 and 6.82, respectively.

Consider `N[C@@H](CNc1cc(-c2ccc(OCC(F)(F)F)cc2)ncn1)c1ccccc1` [Example 20, (1R)-1-Phenyl-N^2-{6-[4-(2,2,2-trifluoroethoxy)phenyl]pyrimidin-4-yl}ethane-1,2-diamine hydrochloride acid salt], for which the results for the pIC50 at FAAH and against Rat FAAH-1 were 6.89 and 5.70, respectively.

As for `N[C@@H](CNc1cc(-c2ccc(C(F)(F)F)c(F)c2)ncn1)c1ccccc1` [Example 4, (1R)—N^2-{6-[3-Fluoro-4-(trifluoromethyl)phenyl]pyrimidin-4-yl}-1-phenylethane-1,2-diamine hydrochloride acid salt], the negative-log IC50 (pIC50) is 7.00 against FAAH and 6.49 against Rat FAAH-1.

With `N[C@@H](CNc1cc(-c2ccc(C(F)(F)F)c(Cl)c2)ncn1)c1ccc(F)c(F)c1` [Example 41, (1R)—N^2-[6-(3-Chloro-4-trifluoromethyl-phenyl)-pyrimidin-4-yl]-1-(3,4-difluoro-phenyl)-ethane-1,2-diamine, trifluoroacetic acid salt], the negative-log IC50 (pIC50) on FAAH is 7.70; on Rat FAAH-1, 7.22.

Turning to `N[C@H](CNc1cc(-c2ccc(C(F)(F)F)c(Cl)c2)ncn1)c1ccc(F)c(Cl)c1` [Example 46, (1S)—N^2-1-(3-Chloro-4-fluoro-phenyl)-[6-(3-chloro-4-trifluoromethyl-phenyl)-pyrimidin-4-yl]-ethane-1,2-diamine], the negative-log IC50 (pIC50) at FAAH and against Rat FAAH-1 was 5.52 in each case.

On to `N[C@@H](CNc1cc(-c2ccc(Cl)c(C(F)(F)F)c2)ncn1)c1ccccc1` [Example 17, (1R)—N^2-{6-[4-Chloro-3-(trifluoromethyl)phenyl]pyrimidin-4-yl}-1-phenylethane-1,2-diamine hydrochloride acid salt], for which the pIC50 against FAAH was 6.60; on Rat FAAH-1 it was 6.05.

`N[C@@H](CNc1cc(-c2ccc(C(F)(F)F)c(Cl)c2)ncn1)c1cccc(F)c1` [Example 37, (1R)—N^2-[6-(3-Chloro-4-trifluoromethyl-phenyl)-pyrimidin-4-yl]-1-(3-fluoro-phenyl)-ethane-1,2-diamine, trifluoroacetic acid salt]: the negative logarithm of the IC50 (pIC50) against FAAH was 7.41; on Rat FAAH-1 it was 6.96.

For `N#Cc1ccc([C@@H](N)CNc2cc(-c3ccc(C(F)(F)F)c(Cl)c3)ncn2)cc1F` [Example 52, (1R)-4-{1-Amino-2-[6-(3-chloro-4-trifluoromethyl-phenyl)-pyrimidin-4-ylamino]-ethyl}-2-fluoro-benzonitrile], the pIC50 is 6.89 against FAAH and 6.62 against Rat FAAH-1.

For the compound `N[C@@H](CNc1cc(-c2ccc(C(F)(F)F)c(Cl)c2)ncn1)c1ccc(F)cc1` [Example 27, (1R)—N^2-[6-(3-Chloro-4-trifluoromethyl-phenyl)-pyrimidin-4-yl]-1-(4-fluoro-phenyl)-ethane-1,2-diamine], the negative logarithm of the IC50 (pIC50) against FAAH is 7.48; against Rat FAAH-1 it was 7.22.

For `N[C@@H](CNc1cc(-c2ccc(C(F)(F)F)c(Cl)c2)ncn1)c1ccc(Cl)c(F)c1` [Example 45, (1R)—N^2-1-(4-Chloro-3-fluoro-phenyl)-[6-(3-chloro-4-trifluoromethyl-phenyl)-pyrimidin-4-yl]-ethane-1,2-diamine], the pIC50 at FAAH is 7.10; against Rat FAAH-1, 7.15.
